Six compounds from ChEMBL document CHEMBL5724914, “Linking interpersonal differences in gut microbiota composition and drug biotransformation activity” (2024) can be followed below.

The conditions of data set [1]: human gut metagenome, 24 h, 2 µM.
Data set [2] can be described thus: The drug is tested on WLS-240 corresponding to human gut metagenome with ENA study accession number: PRJEB37062 and ENA sample accession number: ERS12561773 for biotransformation under anaerobic condition. The drug concentrations were measured over 9 timepoints collected between 0 and 24 hours of incubation by liquid-chromatography-coupled mass spectrometry (LC–MS). As to conditions: 2 µM.

Data set [3] is described as follows: The drug is tested on Z-007 corresponding to rat gut metagenome with ENA study accession number: PRJEB37062 and ENA sample accession number: ERS12561807 for biotransformation under anaerobic condition. The drug concentrations were measured over 9 timepoints collected between 0 and 24 hours of incubation by liquid-chromatography-coupled mass spectrometry (LC–MS). As to conditions: 2 µM.

The conditions of data set [4]: human gut metagenome, 24 h, 2 µM. The source holds these as a separate data set.
For data set [5] the following is noted: human gut metagenome, 24 h, 2 µM. This is another data set of the same source.
Data set [6] can be described thus: The drug is tested on Z-003 corresponding to pig gut metagenome with ENA study accession number: PRJEB37062 and ENA sample accession number: ERS12561803 for biotransformation under anaerobic condition. The drug concentrations were measured over 9 timepoints collected between 0 and 24 hours of incubation by liquid-chromatography-coupled mass spectrometry (LC–MS). As to conditions: 2 µM.

The conditions of data set [7]: human gut metagenome, 24 h, 2 µM. The source holds these as a separate data set.
For data set [8] the following is noted: human gut metagenome, 24 h, 2 µM. The source holds these as a separate data set.
The conditions of data set [9]: human gut metagenome, 24 h, 2 µM. This is another data set of the same source.
The conditions of data set [10]: human gut metagenome, 24 h, 2 µM. The source holds these as a separate data set.
A short description of data set [11]: The drug is tested on Z-019 corresponding to rat gut metagenome with ENA study accession number: PRJEB37062 and ENA sample accession number: ERS12561818 for biotransformation under anaerobic condition. The drug concentrations were measured over 9 timepoints collected between 0 and 24 hours of incubation by liquid-chromatography-coupled mass spectrometry (LC–MS). As to conditions: 2 µM.

For data set [12] the following is noted: human gut metagenome, 24 h, 2 µM. This is another data set of the same source.
The nature of data set [13]: The drug is tested on Z-017 corresponding to mouse gut metagenome with ENA study accession number: PRJEB37062 and ENA sample accession number: ERS12561816 for biotransformation under anaerobic condition. The drug concentrations were measured over 9 timepoints collected between 0 and 24 hours of incubation by liquid-chromatography-coupled mass spectrometry (LC–MS). The settings on record: 2 µM.

The conditions of data set [14]: human gut metagenome, 24 h, 2 µM. This is another data set of the same source.
A short description of data set [15]: The drug is tested on WLS-073 corresponding to human gut metagenome with ENA study accession number: PRJEB37062 and ENA sample accession number: ERS12561749 for biotransformation under anaerobic condition. The drug concentrations were measured over 9 timepoints collected between 0 and 24 hours of incubation by liquid-chromatography-coupled mass spectrometry (LC–MS). The settings on record: 2 µM.

The conditions of data set [16]: human gut metagenome, 24 h, 2 µM. The source holds these as a separate data set.
Data set [17] in a line: The drug is tested on WLS-098 corresponding to human gut metagenome with ENA study accession number: PRJEB37062 and ENA sample accession number: ERS12561754 for biotransformation under anaerobic condition. The drug concentrations were measured over 9 timepoints collected between 0 and 24 hours of incubation by liquid-chromatography-coupled mass spectrometry (LC–MS). As to conditions: 2 µM.

A short description of data set [18]: The drug is tested on WLS-069 corresponding to human gut metagenome with ENA study accession number: PRJEB37062 and ENA sample accession number: ERS12561748 for biotransformation under anaerobic condition. The drug concentrations were measured over 9 timepoints collected between 0 and 24 hours of incubation by liquid-chromatography-coupled mass spectrometry (LC–MS). The settings on record: 2 µM.

For data set [19] the following is noted: human gut metagenome, 24 h, 2 µM. The source holds these as a separate data set.
The nature of data set [20]: The drug is tested on Z-002 corresponding to rabbit gut metagenome with ENA study accession number: PRJEB37062 and ENA sample accession number: ERS12561802 for biotransformation under anaerobic condition. The drug concentrations were measured over 9 timepoints collected between 0 and 24 hours of incubation by liquid-chromatography-coupled mass spectrometry (LC–MS). The settings on record: 2 µM.
Note: call rule not given here.

Regarding `O=C1CC2(CCCC2)CC(=O)N1CCCCN1CCN(c2ncccn2)CC1` [BUSPIRONE], the “Bacterial Biotransformation” value in [1] is recorded as “Compound metabolized”; in data set [2] it was “Compound metabolized”; in data set [3], “Compound NOT metabolized”; in data set [4] it was “Compound metabolized”; in data set [5] it was “Compound metabolized”; in data set [6], “Compound metabolized”. Besides, the “Bacterial Biotransformation” value in [7] is “Compound metabolized”; in data set [8], “Compound metabolized”; in data set [9], “Compound NOT metabolized”; in data set [10] it was “Compound metabolized”; in [11], “Compound NOT metabolized”; in data set [12], “Compound NOT metabolized”. Besides, the “Bacterial Biotransformation” value in [13] is given as “Compound NOT metabolized”; in data set [14], “Compound metabolized”; in [15] it was “Compound NOT metabolized”; in data set [16], “Compound metabolized”; in [17], “Compound metabolized”; in data set [18], “Compound metabolized”. Further, the “Bacterial Biotransformation” value in [19] is reported as “Compound NOT metabolized”; in data set [20], “Compound metabolized”.
Turning to `CC(C)(C)NCC(O)c1cc(Cl)c(N)c(Cl)c1` (stereo not given) [CLENBUTEROL], the “Bacterial Biotransformation” value in data set [1], in [2], in data set [3], in data set [4], in data set [5] and in [6] was “Compound NOT metabolized” each time. Also, the “Bacterial Biotransformation” value in data set [7], in data set [8], in [9], in data set [10], in [11] and in data set [12] was “Compound NOT metabolized” throughout. In addition, the “Bacterial Biotransformation” value in [13], in data set [14], in [15], in [16], in data set [17] and in data set [18] was “Compound NOT metabolized” in each case. The “Bacterial Biotransformation” value in data set [19] and in data set [20] was “Compound NOT metabolized” in each case.
Consider `Br.COc1ccc2c(c1)[C@]13CCCC[C@@H]1[C@H](C2)N(C)CC3.O` [DEXTROMETHORPHAN HYDROBROMIDE], for which the “Bacterial Biotransformation” value in [1] is recorded as “Compound NOT metabolized”; in data set [2] it was “Compound metabolized”; in [3], “Compound NOT metabolized”; in data set [4], “Compound metabolized”; in [5], “Compound metabolized”; in [6], “Compound metabolized”. Further, the “Bacterial Biotransformation” value in [7] is on record as “Compound metabolized”; in [8], “Compound metabolized”; in data set [9] it was “Compound NOT metabolized”; in data set [10] it was “Compound NOT metabolized”; in data set [11], “Compound NOT metabolized”; in data set [12], “Compound metabolized”. Further, the “Bacterial Biotransformation” value in data set [13] is recorded as “Compound NOT metabolized”; in data set [14], “Compound metabolized”; in data set [15] it was “Compound NOT metabolized”; in [16] it was “Compound metabolized”; in [17] it was “Compound metabolized”; in data set [18], “Compound metabolized”. The “Bacterial Biotransformation” value in data set [19] is on record as “Compound NOT metabolized”; in [20], “Compound metabolized”.
Turning to `CC(C)(C)NC[C@H](O)COc1nsnc1N1CCOCC1.O=C(O)/C=C\C(=O)O` [TIMOLOL MALEATE], the “Bacterial Biotransformation” value in data set [1], in data set [2], in data set [3], in data set [4], in [5] and in data set [6] was “Compound NOT metabolized” each time. Also, the “Bacterial Biotransformation” value in data set [7], in [8], in data set [9], in data set [10], in [11] and in [12] was “Compound NOT metabolized” each time. Further, the “Bacterial Biotransformation” value in data set [13], in data set [14], in data set [15], in [16], in [17] and in [18] was “Compound NOT metabolized” each time. For the same compound, the “Bacterial Biotransformation” value in data set [19] and in [20] was “Compound NOT metabolized” in each case.
In the case of `Cc1ccccc1C(OCCN(C)C)c1ccccc1.O=C(O)CC(O)(CC(=O)O)C(=O)O` (stereo not given) [ORPHENADRINE CITRATE], the “Bacterial Biotransformation” value is recorded as “Compound metabolized” in data set [1]; “Compound NOT metabolized” in [2]; “Compound NOT metabolized” in data set [3]; “Compound NOT metabolized” in data set [4]; “Compound NOT metabolized” in data set [5]; “Compound NOT metabolized” in data set [6]. Moreover, the “Bacterial Biotransformation” value in [7] is reported as “Compound NOT metabolized”; in data set [8], “Compound metabolized”; in [9], “Compound NOT metabolized”; in [10] it was “Compound NOT metabolized”; in data set [11], “Compound NOT metabolized”; in [12], “Compound NOT metabolized”. Also, the “Bacterial Biotransformation” value in [13] is listed as “Compound NOT metabolized”; in data set [14] it was “Compound NOT metabolized”; in data set [15] it was “Compound NOT metabolized”; in data set [16] it was “Compound metabolized”; in data set [17], “Compound NOT metabolized”; in [18], “Compound NOT metabolized”. In addition, the “Bacterial Biotransformation” value is recorded as “Compound NOT metabolized” in data set [19] and “Compound metabolized” in [20].
`CCN(CC)CCOC(=O)C1(C2CCCCC2)CCCCC1` [DICYCLOMINE]: the “Bacterial Biotransformation” value in data set [1] is listed as “Compound metabolized”; in data set [2], “Compound NOT metabolized”; in data set [3], “Compound NOT metabolized”; in [4] it was “Compound metabolized”; in [5], “Compound metabolized”; in data set [6], “Compound NOT metabolized”. The “Bacterial Biotransformation” value is listed as “Compound metabolized” in data set [7]; “Compound metabolized” in data set [8]; “Compound metabolized” in data set [9]; “Compound metabolized” in [10]; “Compound NOT metabolized” in data set [11]; “Compound metabolized” in [12]. The “Bacterial Biotransformation” value in data set [13] was “Compound NOT metabolized”; in data set [14], “Compound metabolized”; in data set [15], “Compound NOT metabolized”; in [16], “Compound metabolized”; in data set [17] it was “Compound NOT metabolized”; in data set [18], “Compound metabolized”. For the same compound, the “Bacterial Biotransformation” value in data set [19] and in [20] was “Compound metabolized” throughout.
